Here are results for one compound from patent publication US20220323427A1, “SOMATOSTATIN RECEPTOR TYPE 5 AGONIST FOR THE TREATMENT OF HYPERINSULINISM” (Crinetics Pharmaceuticals, Inc., priority 2021, published 2022).

Data set [1] addresses T1, human somatostatin receptor subtype 2 (Homo sapiens, UniProt P30874).
T1 construct: expressed in transfected cells
The experiment in a line: cAMP assay for SST2R. The settings on record: inhibition of cAMP, CHO-K1 cells expressing human SST2; read-out: SST2 potency (EC50; nM). The format is cell-based. An excerpt: General overview: All five SSTR subtypes are Gi coupled G-protein coupled receptors (GPCRs) that lead to decreases in intracellular cyclic AMP (cAMP) when activated by an agonist. Therefore, measurement of intracellular cAMP levels can be used to assess whether compounds of the invention are agonists of SSTR subtypes (John Kelly, Troy Stevens, W. Joseph Thompson, and Roland Seifert, Current Protocols in Pharmacology, 2005, 2.2.1-2.2). One example of an intracellular cAMP assay is described below.
Four days prior to the assay, 5,000 Chinese hamster ovary cells (CHO-K1, ATCC #CCL-61) stably expressing the human somatostatin receptor subtype 2 are plated in each well of a 96-well tissue culture-treated plate in Ham's F12 growth media (ThermoFisher #10-080-CM) supplemented with 10% donor bovine serum (Gemini Bio-Products #100-506), 100 U/mL penicillin; 100 ug/mL streptomycin; 2 mM L-glutamine (Gemini Bio-Products #400-110) and 0.2 mg/mL hygromycin B (GoldBio #31282-04-9). The cells are cultured at 37° C., 5% CO2 and 95% humidity. […] The time-resolved fluorescent signal is read with a Tecan M1000Pro multiplate reader. The intracellular cAMP concentrations are calculated by regression to a standard curve and are plotted vs. the concentration of the compounds of the invention and the EC50 of the compounds are calculated using standard methods. […]
On the technique in general: cAMP levels reflect the balance of adenylyl cyclase and phosphodiesterase activity.

Data set [2] is described as follows: MAD study pharmacokinetics. It counts as in vivo, human. As to the method:
MAD/Part 2: multiple ascending dose, randomized, placebo-controlled, double-blind; up to 5 cohorts, n=9/cohort; subjects in MAD will receive Compound 1 or the placebo. Subjects will undergo a mixed meal tolerance test (MMTT) and an SU challenge and euglycemic clamp procedure. The doses will not exceed the doses in the SAD. Doses will escalate from 30 mg to 120 mg.

Data set [3] deals with glucose stimulated insulin secretion. The experiment in a line: Intravenous glucose tolerance test (IVGTT), SAD. The format is in vivo, human. As for the experimental part:
The results from the IVGTT will help inform selection of the single dose that will be used in SAD 1b and SAD 1c and also to inform the doses used in the MAD.
A summary of the procedure is as follows: Collect pre-IV bolus blood samples for measurement of PG, insulin, and C-peptide. At 1 hour after study drug dosing/Time 60 (±30 minutes) or nominal time, administer an IV bolus of glucose at 300 mg/kg in 20% solution, within 60 seconds (use the most recent body weight measurement for glucose dose). Collect post-IV bolus blood samples for measurement of PG, insulin, and C-peptide.

Data set [4] has as its system human pancreatic islets. The experiment in a line: Glucagon secretion in perifused human islets. The settings on record: islets from a healthy donor; G3+Arg. It counts as cell-based. As to the method: For glucagon secretion, glucose (Boston BioProducts #BM-675) solutions, G3, G16.7 and G3 plus 20 mM arginine (Sigma #A8094; G3+Arg) were prepared in PB [24 mM NaHCO3 (Fisher Scientific #S233-500), 120 mM NaCl (Spectrum Chemical #S0155), 4.8 mM KCl (Fisher Scientific #P217-500), 2.5 mM CaCl2 (Fisher Scientific #C614-500), 1.2 mM MgCl2 (Sigma #M8266), 10 mM HEPES (Gibco #15630-080) and 0.1% BSA (EMD Millipore #12-675-100GM)]. Various concentrations of Compound 1 and diazoxide (Sigma #D9035) were prepared in G16.7 or in G3+Arg. On the day of the assay, ten perifusion chambers (Biorep #Peri-chamber) were loaded with a bead suspension (Biorep #Peri-beads-20) followed by 300 IEQ and another layer of bead suspension. Chambers were filled with PB, placed in the perifusion equipment and equilibrated with G3 for 74 min (flow rate=230 μL/min) followed by the perifusion steps for glucagon secretion shown in Table 3. […] Glucagon concentration was quantified using the commercially-available Mercodia Glucagon ELISA (Mercodia #10-1271-01) kit. undiluted perfusate samples were added to the supplied pre-coated assay plates. […] The optical density of each well was determined at 450 nm in a Tecan M1000Pro (Tecan, Switzerland) multiplate reader. Glucagon concentrations were calculated by regression to the standard curve using GraphPad Prism (GraphPad, San Diego, Calif.).

[5] abbreviates: single oral dose prior to IV glucose.

The structures appear in SMILES notation. Some results are limits rather than exact numbers.

Broadly, the EC50 is the concentration giving half of the maximal effect.

T1 sequence (P30874 whole entry): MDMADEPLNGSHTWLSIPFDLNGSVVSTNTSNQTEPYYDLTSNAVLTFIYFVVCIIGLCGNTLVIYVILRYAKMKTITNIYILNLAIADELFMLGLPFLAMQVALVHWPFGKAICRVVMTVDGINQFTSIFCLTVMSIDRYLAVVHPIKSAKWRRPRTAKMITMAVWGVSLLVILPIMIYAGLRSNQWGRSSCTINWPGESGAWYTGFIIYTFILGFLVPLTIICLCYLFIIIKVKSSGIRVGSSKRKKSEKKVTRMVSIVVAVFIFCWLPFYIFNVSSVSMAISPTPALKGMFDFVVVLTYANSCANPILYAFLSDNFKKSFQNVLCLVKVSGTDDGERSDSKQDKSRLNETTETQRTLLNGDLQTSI

With `C[C@H](NC(=O)c1cnc(C#N)c(-c2cc(F)cc(F)c2)c1N1CC[C@H](N)C1)C(F)(F)F` [Compound 1, 4-[(3S)-3-aminopyrrolidin-1-yl]-6-cyano-5-(3,5-difluorophenyl)-N-[(2S)-1,1,1-trifluoropropan-2-yl]pyridine-3-carboxamide], the EC50 in data set [1] is over 100 nM. For the same compound, in data set [2] (QD dosing), the “Time to steady state trough levels” value is listed as about 8 days. For the same compound, the “Mean accumulation at steady state for AUC” value in data set [2] (QD dosing 30-120 mg) is given as 2-2.5 ×. In data set [2] (QD dosing 30-120 mg), the “Mean accumulation at steady state for Cmaz” value was 1.6-1.8 ×. Further, in data set [2] (between 30 and 120 mg doses), the “Dose proportionality of exposures” value is on record as “Modestly greater than proportional increases in exposures”. Also, the “% reduction in insulin AUC” value in data set [3] (27 mg dose) is listed as “about 22%”; in data set [3] (60 mg dose), “about 40%”; in data set [3] (120 mg dose), “about 47%”. Besides, the “Insulin secretion in IVGTT” value in data set [3] (setting [5]) is given as “dose-dependently suppressed insulin secretion”. Besides, in data set [3] (setting [5]), the “Plasma glucose in IVGTT” value was “rapid and sustained increase in plasma glucose levels”. In data set [4], the “Inhibition of arginine-stimulated glucagon secretion” value is on record as “up to 24%”.
